Source: patent US9328060B2, “J-series prostaglandin-ethanolamides as novel therapeutics” (East Carolina University, priority 2013, dated 2016)

Key:
[1] = tested on: COX-2 overexpressing squamous carcinoma cell line JWF2; details: JWF2, background section; cited from earlier work
COX-2 = target: T1, COX-2 (Mus musculus, UniProt Q05769); assay: LC/MS of J-series PG-ethanolamides in culture medium of AEA-treated cells; type: cell-based; details: COX-2 overexpressing cells; for J-series PGs identified in AEA-treated cells: FIG. 6C
T1 construct: endogenous in cells; host or cells: JWF2 keratinocytes
T1 sequence (Q05769 18-604): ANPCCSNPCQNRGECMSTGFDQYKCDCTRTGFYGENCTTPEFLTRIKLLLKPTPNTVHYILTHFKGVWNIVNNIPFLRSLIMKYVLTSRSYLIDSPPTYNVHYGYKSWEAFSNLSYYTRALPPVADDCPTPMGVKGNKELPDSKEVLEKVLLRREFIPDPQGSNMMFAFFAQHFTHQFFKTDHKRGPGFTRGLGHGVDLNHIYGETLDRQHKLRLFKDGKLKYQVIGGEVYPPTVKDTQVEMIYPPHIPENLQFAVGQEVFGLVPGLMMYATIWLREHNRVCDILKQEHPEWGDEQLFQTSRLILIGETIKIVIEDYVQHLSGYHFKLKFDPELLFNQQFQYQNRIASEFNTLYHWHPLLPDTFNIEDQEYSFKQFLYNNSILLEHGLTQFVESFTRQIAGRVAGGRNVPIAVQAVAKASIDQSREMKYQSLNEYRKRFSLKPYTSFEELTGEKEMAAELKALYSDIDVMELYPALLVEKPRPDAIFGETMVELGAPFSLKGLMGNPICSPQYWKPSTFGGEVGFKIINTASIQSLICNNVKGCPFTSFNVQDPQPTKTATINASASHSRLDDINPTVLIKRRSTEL
Procedure: To identify the specific J-series PGs that are produced in AEA-treated cells that overexpress COX-2 we treated the cells with AEA, collected the culture medium and analyzed J-series PGs using LC/MS.
To determine the direct role of COX-2 in AEA-induced ER stress, the requirement of COX-2 for J-series PG-ethanolamide synthesis was assessed. Results are depicted in FIG. 9D.

[2] = tested on: tumorigenic keratinocytes (Jwf2); assay: Apoptosis in tumorigenic keratinocytes (FIG. 14); type: cell-based; details: Jwf2, FIG. 14
tumor cell = assay: Tumor cell death (FIG. 7); type: cell-based; details: compared to 15d-PGJ
tumor cells = assay: Selective toxicity in tumor cells (FIG. 15); type: cell-based
[3] = tested on: Tumorigenic JWF2 keratinocytes; assay: MTS cell viability, tumorigenic JWF2 keratinocytes; type: cell-based; details: various concentrations, FIG. 1
Procedure: Tumorigenic JWF2 keratinocytes were treated with various concentrations of AEA and cell viability measured using MTS analysis. […] An interesting feature of tumorigenic keratinocytes is that they overexpress COX-2. However, non-tumorigenic keratinocytes contain low basal levels of COX-2. Therefore, the role of COX-2 in the cytotoxicity of AEA was examined.
JWF2 tumorigenic keratinocytes were treated with each of these prostaglandins and cell survival measured in MTS assays.

HaCaT keratinocytes = details: low basal COX-2, background section; cited from earlier work
[4] = tested on: D- and J-series PG synthesis; assay: Prostaglandin synthesis in JWF2 cells by ELISA; type: cell-based; details: various concentrations of AEA, FIG. 6A
Procedure: To determine if D- and J-series PGs are synthesized endogenously, JWF2 cells were treated with various concentrations of AEA and prostaglandin synthesis measured using ELISA assays.

[5] = tested on: non-tumorigenic HaCaT keratinocytes; assay: MTS cell viability, non-tumorigenic HaCaT keratinocytes; type: cell-based; details: FIG. 1
eIF2a phosphorylation = assay: ER stress (eIF2a phosphorylation staining) in HaCaT transfected with COX-2 or empty vector; type: cell-based; details: HaCaT transfected with COX-2, relative to empty vector transfected cells, FIG. 2
Procedure: Since it was determined that AEA-induced cell death required COX-2 we examined whether ER stress also required COX-2. In this experiment we utilized HaCaT keratinocytes which express low basal levels of COX-2. The cells were transfected with an empty vector (pcDNA6.1) or an expression vector containing COX-2. In FIG. 2 the red signal indicates COX-2 expression, green indicates P-eIF2a phosphorylation and the blue stains the nuclear membrane for orientation.

activated caspase-3 = assay: Apoptosis (activated caspase-3 staining) with or without COX-2; type: cell-based
Excerpt: Red staining indicates COX-2 while the green stain indicates activated caspase-3, a hallmark for apoptosis.

[6] = tested on: CHOP10 expression and Caspase-3 cleavage; assay: CHOP10 expression and caspase-3 cleavage (FIGS. 12, 13); type: cell-based
H-PGDS and L-PGDS = assay: AEA-induced PGD2 and PGJ2 production (FIG. 11); type: cell-based
epidermal tumor = details: background section; cited from earlier work
[7] = tested on: Lewis lung adenocarcinoma; details: oral administration, background section; cited from earlier work

Q: For `CCCCC/C=C/C=C1/C(=O)C=C[C@@H]1C/C=C\CCCC(=O)O` [15-deoxy Δ^12,14 PGJ2, 15-deoxy-Δ^12,14-Prostaglandin J2], which cell death [1] is on record?
A: The cell death was “inducers of cell death”.

Q: With `CCCCC/C=C/C=C1/C(=O)C=CC1C/C=C\CCCC(=O)NCCO` (stereo not shown) [15d-PGJ-EA, 15-deoxy Δ^12,14-prostagladin J2-ethanolamide] as the molecule, how does the “relative abundance among J-series PG-EAs produced” value (COX-2) read?
A: The value was “most abundant produced”.

Q: What about the “J-series PGs identified in AEA-treated cells” value (from here on “J-series PGs identified”) (COX-2) of the same molecule?
A: Its value is “metabolic products of AEA”.

Q: And the apoptosis [2]?
A: The apoptosis was “induces apoptosis”.

Q: What about the tumor cell death (tumor cell) of the same molecule?
A: The tumor cell death was “potent inducer of tumor cell death”.

Q: What about the “toxicity, tumor cell selectivity” value (tumor cells) of the same molecule?
A: Its value is “selectively toxic in tumor cells”.

Q: For `CCCCC/C=C\C/C=C\C/C=C\C/C=C\CCCC(=O)NCCO` [AEA, arachidonoyl ethanolamide], which “cell viability (MTS absorbance)” value [3] is on record?
A: Its value is “concentration-dependent decline in tumor cell viability”.

Q: And the cell death (HaCaT keratinocytes)?
A: Its cell death is “does not induce cell death”.

Q: What about the “D-series PG synthesis” value [4] of the same molecule?
A: Its value is “concentration-dependent increase”.

Q: And the “J-series PG synthesis” value [4]?
A: The value was “concentration-dependent increase”.

Q: And the cell death [1]?
A: Its cell death is “induce cell death”.

Q: What about the “cell viability (MTS absorbance)” value [5] of the same molecule?
A: The value was “did not lead to a loss of viability”.

Q: What about the “eIF2a phosphorylation (ER stress)” value (eIF2a phosphorylation) of the same molecule?
A: The value was “significant increase in eIF2a phosphorylation”.

Q: And the “apoptosis (activated caspase-3)” value (activated caspase-3; cells with COX-2, FIG. 3)?
A: Its value is “induced apoptosis”.

Q: What about the “apoptosis (activated caspase-3)” value (activated caspase-3; in the absence of COX-2, FIG. 3) of the same molecule?
A: The value was “did not undergo apoptosis”.

Q: For `CCCCCC(O)CC=C1C(=O)C=CC1CC=CCCCC(=O)NCCO` (stereo not shown) [D12-PGJ-EA], which “J-series PGs identified” value (COX-2) is on record?
A: Its value is “metabolic products of AEA”.

Q: For `CCCCC[C@H](O)/C=C/[C@H]1C(=O)C[C@H](O)[C@@H]1C/C=C\CCCC(=O)NCCO` [PGD2-EA], which CHOP10 expression ([6]; FIG. 13) is on record?
A: Its CHOP10 expression is “increased”.

Q: What about the Cl-Casp3 expression ([6]; FIG. 13) of the same molecule?
A: Its Cl-Casp3 expression is “increased”.

Q: And the cell death [1]?
A: Its cell death is “cytotoxic”.

Q: For `CCCCC[C@H](O)/C=C/[C@H]1C(=O)C[C@H](O)[C@@H]1C/C=C\CCCC(=O)O` [PGD2], which cell death [1] is on record?
A: The cell death was “cytotoxic”.

Q: For `CCCCC[C@H](O)/C=C/[C@H]1C(=O)C=C[C@@H]1C/C=C\CCCC(=O)O` [PGJ2], which cell death [1] is on record?
A: Its cell death is “inducers of cell death”.

Q: Which “J-series PGs identified” value (COX-2) does the source give for `CCCCCC(O)C=CC1C(=O)C=CC1CC=CCCCC(=O)NCCO` (stereo not shown) [PGJ-EA] here?
A: The value was “metabolic products of AEA”.

Q: For `Cl[Se](Cl)(Cl)Cl` [SeCL4], which “AEA-induced CHOP10 expression” value ([6]; FIG. 12) is on record?
A: Its value is “inhibited”.

Q: What about the “AEA-induced Caspase-3 cleavage” value ([6]; indicator of apoptosis, FIG. 12) of the same molecule?
A: The value was “inhibited”.

Q: And the “AEA-induced PGD2 production” value (H-PGDS and L-PGDS)?
A: The value was “reversed”.

Q: And the “AEA-induced PGJ2 production” value (H-PGDS and L-PGDS)?
A: Its value is “reversed”.

Q: Which epidermal tumor growth (epidermal tumor) does the source give for `Cc1c(C(=O)c2cccc3ccccc23)c2cccc3c2n1[C@H](CN1CCOCC1)CO3` [WIN-55, 212-2] here?
A: Its epidermal tumor growth is “blocked”.

Q: Which “Lewis lung adenocarcinoma growth” value [7] does the source give for `CCCCCc1cc(O)c2c(c1)OC(C)(C)[C@@H]1CCC(C)=C[C@@H]21` [Δ^9-THC, Δ^9-tetrahydrocannabinol] here?
A: Its value is “reduce Lewis lung adenocarcinoma growth”.
